In patent US8206983B2, “In vitro methods for the induction and maintenance of plant cell lines as single suspension cells with intact cell walls” (Dow AgroSciences, LLC., priority 2006, dated 2012):
Where two headings read alike, the source gives them in different places.

Key:
[1] = system: BY2, NT1, Petite Havana (PH) and Xanthi (Xan) and Jimson Weed (JM) Suspension Cells; test: Effects of tubulin inhibitors on growth and cell separation, all suspension types tested; assay type: cell-based
From the text: BY2 suspension-cultured cells were obtained from Japan tobacco and maintained in LSBY2 medium in a 7 day cycle. Jimsonweed suspension and Pettite Havana tobacco suspensions were initiated from callus initiated at DAS and Xanthi suspensions were procured as a sample from Professor Jack Widholm from UIUC, IL. JT-NT1 suspension cells, obtained from Washington University that are maintained in NT1B medium in 7 day cycle were used only for the pectin degradation enzyme study to separate the cells into single cells. The cells were cultured in shake flasks at 25-28° C. in dark on orbital shakers at 150 rpm. […] Stock concentrations of both the tubulin polymerization inhibitors used in this investigation were dissolved in DMSO to prepare a 0.5 M stock solution. The concentration tested for the pectinase and pectolyase enzymes were in the range of 0.0005% to 0.005%. […] NT-1 cells were originally developed from Nicotiana tabacum L. cv. bright yellow 2.
Cell expansion and separation were observed by light microscopy (with Nomarski and dark field optics). Spherical cells and single cells were counted by using a hemacytometer to determine the degree of cell expansion and separation, respectively. […] In order to determine the presence of the cell wall in this single cell cultures optical brightener was used. Calcafluor obtained from Sigma, which is a specific fluorescent dye for cellulose is used in this study, and the cellulose-Calcafluor complexing was observed by fluorescence microscopy (Zeiss Photomicroscope). […] Prior to use, the Calcafluor stain was centrifuged at 15,000 g for 2 min. to remove precipitates. A drop or two of the Calcafluor solution was added to the separated cells.

NT1 tobacco cell growth = test: Effects of MTI on NT1 tobacco cell growth and single cell production in glycerol medium; assay type: cell-based
Protocol: The effects of Microtubule inhibitors (MTI) on tobacco cell growth in suspension culture were examined. […] Both the control and MTI-containing flasks contained a final concentration of 0.5-0.1% (v/v) DMSO. The growth of these chemicals was evaluated in EP12 medium for BY2 cells and NT1B medium for BTI-NT1 cells were the carbon source is substituted with 3% glycerol. The response of these cells was compared with the same medium composition but with 3% sucrose as the Carbon source.

BY2 cells = test: Single cell production by MTI in BY2 cells in glycerol medium; assay type: cell-based, tobacco; conditions: glycerol as total carbon source
Protocol: The effects of Microtubule inhibitors (MTI) on tobacco cell growth in suspension culture were examined. Day seven stationary phase cells (1 ml) were transferred to medium (50 ml) in 250 ml shake flasks (Bokros et al., 1993) containing different concentrations (25 to 1000 nM) of MTI and were grown in cultures for 7 days in dark at 25° C. Both the control and MTI-containing flasks contained a final concentration of 0.5-0.1% (v/v) DMSO. The growth of these chemicals was evaluated in EP12 medium for BY2 cells and NT1B medium for BTI-NT1 cells were the carbon source is substituted with 3% glycerol. The response of these cells was compared with the same medium composition but with 3% sucrose as the Carbon source.

[2] = system: Carrot suspension cultures; test: Single cell production from carrot suspension cultures; parameters: colony growth after plating single cells on M-medium: dose or concentration left out as unconfirmed
Protocol: Carrot callus cultures have been initiated from the in vitro maintained Daucus carota L. ssp. sativus cv Sativa plants. Isolated leaf petiole explants were cultured on semi solid medium (Mashayekhi-Nezamabadi, 2000). Suspension cultures were initiated from the callus by transferring 50 mg of friable callus in 1.5 ml of LSBY2 medium (Appendix I) in 24 micro well plate. The fastest growing suspensions were then transferred to flasks with 1 ml suspension in 35 ml LSBY2 liquid medium. The cultures were maintained in diffused light in a 7 day sub culture cycle.
A 1.5-ml diluted single cell cultures were plated on M-medium (Appendix II) in 15×100 Petri-plates and spread out using the loop. Untreated carrot suspension aggregates were also diluted to the same density and plated similarly to compare the growth responses between these cultures.
LSBY2 medium consists of Murashige and Skoog macro and micro-salts (Murashige and Skoog 1962) supplemented with 30 g sucrose (w/v), 100 mg/l myoinositol, 200 mg/l KH2PO4, 1 mg/l thiamine and […] 2,4-dichlorophenoxyacetic acid. The medium is adjusted pH 5.8 before autoclaving at 120° C. Suspension volume at the 7th day of culture, at stationary phase was used to initiate cultures. A 1-ml volume of carrot suspension inoculums is transferred into 50 ml LSBY2 medium and then the cultures were placed on shakers at 150 rpm in the dark at 28° C. The MTI compounds used were added along with the fresh medium at the culture initiation cycle.
A regenerable carrot cryopreserved line (D2-40-018) was thawed and cultured in Linsmeier-Skoog (LS) medium (Nagata, T., Nemoto, Y., and Hasezawa, S. (1992) Int. Rev. Cyto 132, 1-30). Medium salts were purchased from PhytoTechnology Laboratories, Catalog #L689. An actively growing suspension line was established within a week, and the maintenance line was sub-cultured by transferring 2 ml PCV to 58 ml of LS BY2 suspension medium at 28° C. on an orbital shaker (Innova-3300) at 125 rpm under diffused light on a 7 day culture cycle.

[3] = system: JTNT1 tobacco cell suspension cultures; test: Single cell production, growth and viability of JTNT1 suspension with microtubule inhibitors in 24-well plates, glycerol medium
From the text: JTNT1 Tobacco Suspension Cultures. […] Furthermore, Suc stabilizes preformed microtubules, making an examination of the effects of MTIs on preformed microtubules unfeasible. In addition, sucrose increases solution viscosity substantially, and tubulin polymerization is altered at least in part by slowed dimer and polymer diffusion rates. Thus, it was important to have low or no sucrose in medium where the single cell production. Thus, a new JTNT1 line habituated in Glycerol was developed for this study.
Each of the 24 well contained 1 ml of JTNT1 suspension. The 24-well plates were kept on an Innova 4900 Multi Environmental Shaker with special clamps and harnesses to allow stacking of plates up to 6 plates high. The plates were rotated at a speed of 130 rpm and 25° C. in dark.
Single Cell Production. Each compound was dissolved in dimethyl sulfoxide (DMSO) to provide 0.5 Molar stock solutions. One ml of JTNT1 suspension (1 ml PCV/20 ml tobacco media) was added to each well of the 24 well plates. To each well an individual chemical was added to achieve the desired concentrations (at 1 μM, 3 μM, and 10 μM). The cultures were allowed to grow for 7 days on the Innova Shaker. Each day turbidity measurements was taken on each well using a SpectraMax M2^e by Molecular devices (set at 600 absorbance, with 5 readings taken per well). On day 7, cells were observed using the Leica 5000 inverted confocal microscope for formation of single cells and cell viability.

CCOC(=O)COc1nn(-c2ccccc2)c(-c2ccccc2)c1Cl [DAS-PMTI-1]
potency relative to colchicine in affecting the growth of the cultures [1]: 100-1000 ×
cell growth ([1]; 0.5 mM): affected very significantly
cell death ([1]; 0.5 mM, after 7 days of treatment): considerable cell death
cell segregation ([1]; all the cell suspension types tested): partial segregation of cells with general spherical shape
concentrations causing inhibition of mitosis, and cell death (NT1 tobacco cell growth): over 100 nM
threshold of tobacco cell growth inhibition (NT1 tobacco cell growth): ~50 nM
micro-nuclei in single cells (microscopic observations) (NT1 tobacco cell growth; 25 nM): did not show the presence of micro-nuclei
fresh weights versus controls during the stationary phase (NT1 tobacco cell growth; 25 nM (sentence ends with 50 nM), 3% glycerol): slightly greater
growth rate of the cells (NT1 tobacco cell growth; 25 nM, over a period of 10 days): not lowering the growth rate
effect on growth (NT1 tobacco cell growth; 0.5-1.0 mM): complete inhibition and cell death
time to complete inhibition and cell death (NT1 tobacco cell growth; 0.5-1.0 mM, from culture initiation): ≤ 3 days
concentration effective for the production of single cells (NT1 tobacco cell growth; glycerol as total carbon source, NT1 cells): 0.005 to 0.025 µM
concentration effective for the production of single cells (BY2 cells): 5 to 25 nM
character of single cell production [2]: assorted cell shapes
biomass versus respective controls ([3]; 1 uM, sucrose or glycerol medium): did not reduce the biomass of the cells significantly

COc1cc2c(c(OC)c1OC)-c1ccc(OC)c(=O)cc1[C@@H](NC(C)=O)CC2 [Colchicine]
cell expansion and separation ([1]; 0.5 mM colchicine, all the other cell suspensions tested): partially occurred
concentration effective for the production of single cells (NT1 tobacco cell growth): 250 to 500 µM
character of single cell production [2]: homogenous production of single cells
time of single cell production ([2]; 1 mM): 3 to 7 days
nuclear ploidy of single cells ([2]; 1 mM, 14-21 days of continuous treatments): nuclear polyploidy
viability by fluorescein diacetate stain ([2]; 1 mM, 4 days and 11 days): very active and viable
frequency of nuclear polyploidy ([2]; 1 mM, cultures up to 14 days): < 1%
nuclei of super single cells ([2]; 1 mM, up to 28 days): extensive lobed nuclei
colony growth after plating single cells on M-medium ([2]; 7 days in colchicine, 4 weeks growth in the dark): several discrete colonies
concentration necessary to produce single cells, lower end of range [3]: ≥ 50 µM
concentration necessary to produce single cells, upper end of range [3]: ≤ 2 mM
increase in diameter of single cells ([3]; NT1B medium with 3% glycerol): 5 fold
